The test system of experiment [1] is Enterococcus faecalis. Description: (§1) Inhibition of Enterococcus faecalis recombinant type 1 methionine aminopeptidase expressed in Escherichia coli BL21 (DE3) using Met-pNA substrate.
Experiment [2] in a line: as §1.
Experiment [3] relates to Enterococcus faecalis. In words: Maximal inhibition of Enterococcus faecalis recombinant type 1 methionine aminopeptidase expressed in Escherichia coli BL21 (DE3) using Met-pNA substrate at 10 uM in presence of CoCl2.
The subject of experiment [4] is Enterococcus faecalis. Description: Inhibition of Enterococcus faecalis recombinant type 1 methionine aminopeptidase expressed in Escherichia coli BL21 (DE3) using Met-pNA substrate by spectral study in presence of CoCl2.
The test system of experiment [5] is Enterococcus faecalis. In words: Inhibition of Enterococcus faecalis recombinant type 1 methionine aminopeptidase expressed in Escherichia coli BL21 (DE3) using Met-pNA substrate by spectral study in presence of Mn2+.

Molecules are shown by their SMILES. The source made the active and inactive calls. The calls are words filed in the database; no cut-off is given here.

As for `O=C([O-])CC(O)(CC(=O)[O-])C(=O)[O-].[Na+].[Na+].[Na+]`, the inhibition result in experiment [1] is “inactive”.

Take `c1ccc(-c2ccccn2)nc1` [DIPYRIDYL]: the IC50 in experiment [2] is 6.67 µM. Moreover, the inhibition in experiment [3] was 75%. Further, the inhibition result in experiment [4] and in experiment [5] was “Active” each time.

As for `c1cc(-c2ccncc2)ccn1`, the inhibition entry in experiment [1] is “inactive”.

The record behind these values is ChEMBL document CHEMBL3217429, “Structural studies of Enterococcus faecalis methionine aminopeptidase and design of microbe specific 2,2-bipyridine based inhibitors” (Medchemcomm, 2012).
